According to patent US20070238711A1, “Combination Therapy with Glatiramer Acetate and Minocycline for the Treatment of Multiple Sclerosis” (priority 2004, published 2007):
Where “and” joins values, the source holds several entries; their conditions need not be identical. Equal values may be shown once.

What was measured:
severe EAE = assay: Experiment 1: low doses of glatiramer acetate and minocycline on severe EAE (MOG-induced); assay type: in vivo, C57/BL6 mice; set-up: key to EAE clinical score, individual mouse / EAE clinical score, group average (ave): composite score 0 = no symptoms, 14 = fully quadriplegic, 15 = death; key to Sum of Scores, individual mouse / Sum of Scores, group average (ave): sum of daily clinical scores (0–15 scale) over the experiment; conditions: for effect on clinical scores of EAE: severe EAE, sub-optimal doses, FIG. 2; for Sum of Scores, group average (ave) / Sum of Scores, individual mouse: sum of daily clinical scores over the entire experiment; for effect on disease severity: summary of Experiments 1-2, sub-optimal doses
Experimental: Intraperitoneal pertussis toxin was given on the day of MOG administration and also 2 days after. FIG. 1 presents a layout of the experimental design. Minocycline was administered intraperitoneally at a sub-optimal dose (25 mg/kg) when the first mouse in the entire experiment developed signs of EAE (See FIG. 1). Minocycline was administered daily until mice were sacrificed. […] Thus, we have developed a new system in order to better differentiate functional outcomes. […] For the tail: 0—no symptoms […] For each of the hind limbs or fore limbs, each assessed separately: 0—no symptoms […] Thus, a fully paralysed quadriplegic animal would attain a score of 14. […] Death is automatically given a score of 15. Another parameter that we have employed is the “sum of scores”. This refers to the addition of each daily clinical score over the entire period of the experiment. This is a reflection of the total burden of disease, and takes into account variations in onset of disease, and the daily scores.

moderate EAE = assay: Experiment 2: low doses of glatiramer acetate and minocycline on moderate EAE; assay type: in vivo, C57/BL6 mice; conditions: sub-optimal doses, FIG. 4
Text: The protocol of Experiment 1 was followed. […] The number of mice in each group was as follows: 8 in the vehicle group, 11 in the minocycline group, 10 in the Copaxone® group, and 9 in the combination group.

EAE [1] = assay: Experiment 3: high doses of glatiramer acetate and minocycline on EAE; assay type: in vivo, C57/BL6 mice; conditions: Copaxone 375 μg, minocycline 37.5 mg/kg
Experimental: The effects of all treatments versus the control are analyzed histologically (hematoxylin-eosin and Luxol fast blue for evidence of inflammation and demyelination, respectively). Cellular infiltrates are characterized by CD3, CD4, CD8, CD56 and CD19 immunohistochemistry. Blind evaluation (on a qualitative scale from + to ++++) is conducted on the following: the density of perivascular infiltrates, the distance of migration of leukocytes into the CNS parenchyma from blood vessels, and the degree of demyelination. The neuropathological assessments are focused on the optic nerve, lumbar cord and brainstem.

EAE [2] = conditions: cited from earlier work
T lymphocytes = conditions: previous observation; cited from earlier work
multiple sclerosis = conditions: daily subcutaneous injections, 20 mg/injection; cited from earlier work
R-R MS = conditions: versus placebo, 9-month trial; cited from earlier work
[3] = Day 0, 15-point scale, Copaxone 250 μg, minocycline 25 mg/kg i.p.

Compound	EAE clinical score, group average (ave) (severe EAE; Day 0)	EAE clinical score, individual mouse (severe EAE; [3])	EAE clinical score, group average (ave) (severe EAE; Day 9)	EAE clinical score, individual mouse (severe EAE; Day 9)	EAE clinical score, group average (ave) (severe EAE; Day 10)	EAE clinical score, individual mouse (severe EAE; Day 10)	EAE clinical score, group average (ave) (severe EAE; Day 11)	EAE clinical score, individual mouse (severe EAE; Day 11)	EAE clinical score, group average (ave) (severe EAE; Day 12)	EAE clinical score, individual mouse (severe EAE; Day 12)	EAE clinical score, group average (ave) (severe EAE; Day 13)	EAE clinical score, individual mouse (severe EAE; Day 13)	EAE clinical score, group average (ave) (severe EAE; Day 14)	EAE clinical score, individual mouse (severe EAE; Day 14)	EAE clinical score, group average (ave) (severe EAE; Day 15)	EAE clinical score, individual mouse (severe EAE; Day 15)	EAE clinical score, group average (ave) (severe EAE; Day 16)	EAE clinical score, individual mouse (severe EAE; Day 16)	EAE clinical score, group average (ave) (severe EAE; Day 17)	EAE clinical score, individual mouse (severe EAE; Day 17)	also measured
CN(C)c1ccc(O)c2c1C[C@H]1C[C@H]3[C@H](N(C)C)C(O)=C(C(N)=O)C(=O)[C@@]3(O)C(O)=C1C2=O [Minocycline, [4S-(4∝,4a∝,5a∝,12a∝)]-4,7-bis(dimethylamino)-1,4,4a,5,5a,6,11,12a-octahydro-3,10,12,12a-tetrahydroxy-1,11-dioxo-2-naphthacenecarboxamide]	0	0	4	3 (2×) and 4 (7×)	4	4 (6×) and 6 (2×) and 3	6	8 and 5 and 6 (2×) and 7 (4×) and 4	7	7 (2×) and 6 and 9 and 8 (4×) and 4	8	7 and 9 (6×) and 4 and 10	9	8 (2×) and 10 (5×) and 4 and 9	9	11 and 10 (5×) and 9 and 4 and 6	9	11 and 10 (3×) and 8 (3×) and 9 and 3	8	10 (2×) and 8 (2×)	EAE clinical score, group average (ave) (severe EAE; Day 18): 8; EAE clinical score, individual mouse (severe EAE; Day 18): 11 (2×) and 6; EAE clinical score, group average (ave) (severe EAE; Day 19): 7; EAE clinical score, individual mouse (severe EAE; Day 19): 8 and 11 and 6; EAE clinical score, group average (ave) (severe EAE; Day 20): 7; EAE clinical score, individual mouse (severe EAE; Day 20): 8 and 11 and 5; EAE clinical score, group average (ave) (severe EAE; Day 21): 7; EAE clinical score, individual mouse (severe EAE; Day 21): 7 and 9 and 5; EAE clinical score, group average (ave) (severe EAE; Day 22): 7; EAE clinical score, individual mouse (severe EAE; Day 22): 9 (2×) and 5; effect on clinical scores of EAE (severe EAE): ineffective; Sum of Scores, group average (ave) (severe EAE): 102.3; Sum of Scores, individual mouse (severe EAE): 112 and 121 and 93 and 109 (2×) and 55 and 102 and 122 and 98; effect on disease severity (severe EAE): did not markedly decrease disease severity; effect on EAE severity / disease course (moderate EAE): did not elicit a clinical response; effect on disease severity (EAE [1]): significantly decreases disease severity; disease activity (EAE [2]; chronic relapsing remitting EAE): dramatically suppress disease activity; severity of disease (EAE [2]; mild EAE): attenuate the severity; course of disease (EAE [2]; severe EAE): delay the course
L-glutamic acid polymer with L-alanine, L-lysine and L-tyrosine, acetate (salt) [Copaxone ®]	0	0	1	0 (7×) and 3 and 2	1	0 (5×) and 3 (2×) and 1 and 2	3	0 (3×) and 4 (2×) and 7 and 8 and 2 and 6	4	0 (2×) and 5 (2×) and 7 (2×) and 2 and 6 and 8	6	0 (2×) and 9 (3×) and 5 and 8 (2×) and 7	7	3 and 8 (5×) and 10 and 0 and 6	8	4 and 10 (6×) and 0 and 8	7	8 (4×) and 10 (2×) and 11 and 0 and 3	7	8 (2×) and 10 (2×)	EAE clinical score, group average (ave) (severe EAE; Day 18): 7; EAE clinical score, individual mouse (severe EAE; Day 18): 9 and 8 and 10; EAE clinical score, group average (ave) (severe EAE; Day 19): 7; EAE clinical score, individual mouse (severe EAE; Day 19): 7 and 8 and 12; EAE clinical score, group average (ave) (severe EAE; Day 20): 6; EAE clinical score, individual mouse (severe EAE; Day 20): 5 and 8 and 11; EAE clinical score, group average (ave) (severe EAE; Day 21): 6; EAE clinical score, individual mouse (severe EAE; Day 21): 7 (2×) and 9; EAE clinical score, group average (ave) (severe EAE; Day 22): 6; EAE clinical score, individual mouse (severe EAE; Day 22): 5 (2×) and 9; effect on clinical scores of EAE (severe EAE): slight benefit; Sum of Scores, group average (ave) (severe EAE): 75.56; Sum of Scores, individual mouse (severe EAE): 56 and 88 and 117 and 95 and 0 and 100 and 87 (2×) and 50; effect on disease severity (severe EAE): did not markedly decrease disease severity; effect on EAE severity / disease course (moderate EAE): slight attenuation of disease course; effect on disease severity (EAE [1]): significantly decreases disease severity; efficacy previously observed in the T cell transmigration assay (T lymphocytes): lack of efficacy; relapse rates, progression of disability, new MRI lesions, black holes (multiple sclerosis): reduce relapse rates; gadolinium-enhancing lesions progressing to persistent black holes (R-R MS): significantly fewer
